Reference: patent US5817297A, “Composition for enhancing oral hygiene” (LG Chemical Ltd., priority 1996, dated 1998)

Legend:
[1] = test system: collagenase; experiment: Inhibition of collagenase activity (azocol digestion, absorbance at 540 nm), Experiment 1; assay type: biochemical; details: Table 4; final concentration 0.02%, 10% ethanol solution
Description: The inhibition effects on collagenase activity of various substances including ursodesoxycholic acid and chenodesoxycholic acid as the effective components of the composition for enhancing oral hygiene according to the present invention were determined and compared according to the following method.
ursodesoxycholic aicd, chenodesoxycholic acid, fel tauri salt, bamboo salt, common salt, Machili cortex, Phellodendri cortex, Platycodi radix, Schizonepetae herba, Glycyrrhizae radix, Angelicae gigantis radix, Chamomillae flos, Myrrha, Theae folium, Taraxaci radix cum Herba, Lonicerae flos, Ciniicifugae rhizoma.
1 100 μl of 2% azocol solution was added to the test tube and then 190 μl of buffer solution (0.05M Tris-HCl, 1 mM CaCl2, pH 7.8) was added thereto.
2 To the resulting solution as prepared above was added to each test substance in the following concentration:
Ursodesoxycholic acid (10% ethanol solution) or chenodesoxycholic acid (10% ethanol solution) was added to the final concentration of 0.02%;
Fel tauri salt, bamboo salt or common salt was dissolved in the buffer solution as mentioned above and then added to the final concentration of 2.0%;
Machili cortex, Phellodendri cortex, Platycodi radix, Schizonepetae herba, Glycyrrhizae radix, Angelicae gigantis radix, Chamomillae flos, Myrrha, Theae folium, Taraxaci radix cum Herba, Lonicerae flos or Cimicifugae rhizoma was added in the form of 30% ethanol extract to the final concentration of 0.1%.
3 100 μl of collagenase having 100 ppm concentration was added and then the mixture was maintained in a 37° C. incubator for 18 hours. (Separately, the standard activity curve was prepared from 10, 100, 200 μl of collagenase.)
4 The test tubes were centrifuged for 5 minutes.
5 The supernatant was separated from the test tube and then added to the cell. The absorbance at 540 nm was measured by spectrophotometer and then the activity of the test group was determined from the standard activity curve.

[2] = test system: Streptococcus mutans 10449, type C; experiment: Inhibition of plaque formation on glass bar by Streptococcus mutans, Experiment 2; assay type: cell-based; details: for plaque formation(%): 1440 min
Description: The inhibition effect of ursodesoxycholic acid, chenodesoxycholic acid and triclosan as the effective components of the composition for enhancing oral hygiene according to the present invention on plaque formation was determined and compared according to the following method.
Ursodesoxycholic acid, Chenodesoxycholic aicd, Triclosan.
1 Test strain, Streptococcus mutans 10449, type C was cultured in brain-heart infusion agar medium and then the cultured strain was inoculated on THB(Todd Hewitt Broth) and cultured at 37° C. for 15 hours.
2 The small glass bar was sterilized and then weighed.
3 This glass bar was introduced into the test tube in which the medium containing sucrose is included. The test substance was added at a given concentration to the test tube and then the test microorganism strain was added thereto. The test tube was cultured at 37° C. for 24 hours.
4 After incubation, the glass bar was carefully removed from the test tube and dried at 37° C. for one day. The final weight of the glass bar was measured. The control group was treated in the same manner as the test group except that the test substance is not added.
5 From the measured result, the plaque formation percentage was calculated according to the following equation: [formula]

[3] = test system: plaque formation; experiment: Plaque index of test subjects using dentifrice of Table 1, Experiment 3; assay type: in vivo, human; details: in words; for effect on the plaque formation: dentifrice
Description: (§1) The effect of inhibiting plaque formation and gingivitis was tested using the dentifrice compositions of Examples 1 to 6 and Comparative Examples 1 to 4 described in Table 1 according to the following method. The results are described in the following Tables 7 and 8.
(§2) 1 The test subjects were selected and were given the explanation of oral medical examination.
(§3) 2 The test subjects were divided such that the group for each composition of examples and comparative examples includes 10 subjects, and then had the education of correct brushing method. The test subject were subjected to the oral medical examination to measure the plaque index (Quigley-Hein Index modified by Turesky) and the gingivitis index (Gingival Bleeding Index, Loe-Silness Index).
(§4) 3 Before the test, all the test subjects were subjected to teeth scaling.
(§5) 4 The placebo dentifrice(calcium monohydrogenphosphate 40%, glycerin 25%, sodium laurylsulfate 1.5%, sodium saccharin 0.1%, paraoxybenzoic acid ester 0.1%, sodium carboxymethylcellulose 1%, purified water added to 100%) was used for 2 weeks and then the oral medical exmamination was conducted again to measure the plaque index and the gingivitis index as the initial value.
(§6) 5 The test subjects were allowed to brush using the dentifrice of examples and comparative examples for 4 weeks, three times for one day, according to the same method as usual. The oral medical examination was conducted at the second and fourth weeks to determine the plaque index score and the gingivitis index score.
(§7) 6 The score obtained after 4 weeks was compared with the initial value and examined for the statistic significance using T-test.

[4] = test system: gingivitis; experiment: Gingivitis index of test subjects using dentifrice of Table 1, Experiment 3; assay type: in vivo, human; details: for effect of alleviating gingivitis / effect on gingivitis in combination with bamboo salt, the extract of medicinal herbs, etc.: dentifrice, in words
Description: as §1, §2, §3, §4, §5, §6, §7

[5] = test system: plaque formation; experiment: Plaque index of test subjects using oral rinse of Table 2, Experiment 4; assay type: in vivo, human; details: in words
Description: as §2, §3, §4, §5, §6
6 The score obtained after 4 weeks was compared with the initial value and examined for the statistic significance using T-test. […]

[6] = test system: gingivitis; experiment: Gingivitis index of test subjects using oral rinse of Table 2, Experiment 4; assay type: in vivo, human; details: in words
Description: as §2, §3, §4, §5, §6, §7
The effect of inhibiting plaque formation and gingivitis was tested using the oral rinse compositions of Examples 7 to 12 and Comparative Examples 5 to 8 described in Table 2 according to the same method as Experiment 3. The results are described in the following Tables 9 and 10.

[7] = test system: collagenase; experiment: Inhibition of collagenase activity (azocol digestion, absorbance at 540 nm), Experiment 1; assay type: biochemical; details: for Absorbance (540 nm) / Enzyme activity inhibition (%): Table 5; for activity for inactivating collagenase / inhibition effect at the concentration in excess of 0.6% / inhibition effect on collagenase activity in comparison with extracts of other medicinal herbs: in words

In the case of `C[C@H](CCC(=O)O)[C@H]1CC[C@H]2[C@@H]3[C@H](O)C[C@@H]4C[C@H](O)CC[C@]4(C)[C@H]3CC[C@]12C` [Chenodesoxycholic acid, chenodesoxycholic acid], the “Absorbance (540 nm)” value [1] is reported as 0.260, the “Enzyme activity inhibition (%)” value [1] is reported as 39.23% and the pH ([2]; 0.100 (unit not given)) is reported as 4.2. For the same compound, the “plaque formation(%)” value ([2]; 0.100 (unit not given)) was 100.0%, the “effect on the plaque formation” value [3] was “no significant effect on the plaque formation” and the “plaque effect in combination with the extract of other medicinal herbs” value [3] was “do not show any synergistic and antagonistic effect”. For the same compound, the “effect of alleviating gingivitis” value [4] was “good effect of alleviating gingivitis”, the “effect on gingivitis in combination with bamboo salt, the extract of medicinal herbs, etc.” value (from here on “effect on gingivitis in combination”) [4] was “synergistic alleviating effect on gingivitis” and the “effect on the plaque formation” value [5] was “no significant effect on the plaque formation”. For the same compound, the “alleviating effect for gingivitis” value [6] was “good alleviating effect for gingivitis”, the “effect on gingivitis in combination” value [6] was “synergistic allevia- ting effect on gingivitis” and the “concentration at which inhibition effect on collagenase begins” value [7] was 0.01%. For the same compound, the “concentration at which inhibition effect on collagenase reaches the maximum level” value [7] was 0.6%, the “Absorbance (540 nm)” value ([7]; content 0.001%) was 0.324 and the “Enzyme activity inhibition (%)” value ([7]; content 0.001%) was -1.20%. For the same compound, the “Absorbance (540 nm)” value ([7]; content 0.010%) was 0.315, the “Enzyme activity inhibition (%)” value ([7]; content 0.010%) was 6.55% and the “Absorbance (540 nm)” value ([7]; content 0.020%) was 0.260. The “Enzyme activity inhibition (%)” value ([7]; content 0.020%) was 39.23%, the “Absorbance (540 nm)” value ([7]; content 0.050%) was 0.230 and the “Enzyme activity inhibition (%)” value ([7]; content 0.050%) was 52.15%. For the same compound, the “Absorbance (540 nm)” value ([7]; content 0.100%) was 0.180, the “Enzyme activity inhibition (%)” value ([7]; content 0.100%) was 67.87% and the “Absorbance (540 nm)” value ([7]; content 0.150%) was 0.052. The “Enzyme activity inhibition (%)” value ([7]; content 0.150%) was 88.41%, the “Absorbance (540 nm)” value ([7]; content 0.200%) was 0.007 and the “Enzyme activity inhibition (%)” value ([7]; content 0.200%) was 91.91%. The “Absorbance (540 nm)” value ([7]; content 0.600%) was 0.002, the “Enzyme activity inhibition (%)” value ([7]; content 0.600%) was 92.22% and the “Absorbance (540 nm)” value ([7]; content 1.000%) was 0.002. For the same compound, the “Enzyme activity inhibition (%)” value ([7]; content 1.000%) was 92.22%, the “Absorbance (540 nm)” value ([7]; content 2.000%) was 0.002 and the “Enzyme activity inhibition (%)” value ([7]; content 2.000%) was 92.22%. For the same compound, the “activity for inactivating collagenase” value [7] was “good activity for inactivating collagenase”, the “inhibition effect at the concentration in excess of 0.6%” value [7] was “not significantly increased” and the “inhibition effect on collagenase activity in comparison with extracts of other medicinal herbs” value [7] was “superior inhibition effect on collagenase activity”.
With `Oc1cc(Cl)ccc1Oc1ccc(Cl)cc1Cl` [Triclosan, triclosan] the pH ([2]; triclosan 0.0010) was 4.3, the “plaque formation(%)” value ([2]; triclosan 0.0010) was 100.0% and the pH ([2]; triclosan 0.0050) was 4.3. For the same compound, the “plaque formation(%)” value ([2]; triclosan 0.0050) was 100.0%, the pH ([2]; triclosan 0.0100) was 4.3 and the “plaque formation(%)” value ([2]; triclosan 0.0100) was 100.0%. The pH ([2]; triclosan 0.0300) was 4.5, the “plaque formation(%)” value ([2]; triclosan 0.0300) was 50.0% and the pH ([2]; triclosan 0.0500) was 7.5. The “plaque formation(%)” value ([2]; triclosan 0.0500) was 0.0%.
For `C[C@H](CCC(=O)O)[C@H]1CC[C@H]2[C@@H]3[C@@H](O)C[C@@H]4C[C@H](O)CC[C@]4(C)[C@H]3CC[C@]12C` [Ursodesoxycholic acid, ursodesoxycholic acid], the “Absorbance (540 nm)” value [1] was 0.243, the “Enzyme activity inhibition (%)” value [1] was 45.64% and the pH ([2]; 0.100 (unit not given)) was 4.2. For the same compound, the “plaque formation(%)” value ([2]; 0.100 (unit not given)) was 100.0%, the “effect on the plaque formation” value [3] was “no significant effect on the plaque formation” and the “plaque effect in combination with the extract of other medicinal herbs” value [3] was “do not show any synergistic and antagonistic effect”. For the same compound, the “effect of alleviating gingivitis at the concentration in excess of 1.0 wt %” value ([4]; Comparative Example 2, in words) was “does not show any increase of the effect in proportion to the increase of the concentration”, the “effect of alleviating gingivitis” value [4] was “good effect of alleviating gingivitis” and the “effect on gingivitis in combination” value [4] was “synergistic alleviating effect on gingivitis”. For the same compound, the “concentration at which the effect of alleviating gingivitis begins” value ([4]; human, in vivo) was 0.01 wt %, the “concentration with a significant effect in comparison with Comparative Example 4” value ([4]; human, in vivo) was at least 0.02 wt % and the “effect on the plaque formation” value [5] was “no significant effect on the plaque formation”. For the same compound, the “alleviating effect for gingivitis” value [6] was “good alleviating effect for gingivitis”, the “effect on gingivitis in combination” value [6] was “synergistic allevia- ting effect on gingivitis” and the “concentration at which inhibition effect on collagenase begins” value [7] was 0.01%. For the same compound, the “concentration at which inhibition effect on collagenase reaches the maximum level” value [7] was 0.6%, the “Absorbance (540 nm)” value ([7]; content 0.001%) was 0.326 and the “Enzyme activity inhibition (%)” value ([7]; content 0.001%) was -2.82%. The “Absorbance (540 nm)” value ([7]; content 0.010%) was 0.305, the “Enzyme activity inhibition (%)” value ([7]; content 0.010%) was 13.02% and the “Absorbance (540 nm)” value ([7]; content 0.020%) was 0.243. For the same compound, the “Enzyme activity inhibition (%)” value ([7]; content 0.020%) was 45.64%, the “Absorbance (540 nm)” value ([7]; content 0.050%) was 0.215 and the “Enzyme activity inhibition (%)” value ([7]; content 0.050%) was 57.54%. For the same compound, the “Absorbance (540 nm)” value ([7]; content 0.100%) was 0.166, the “Enzyme activity inhibition (%)” value ([7]; content 0.100%) was 71.26% and the “Absorbance (540 nm)” value ([7]; content 0.150%) was 0.050. The “Enzyme activity inhibition (%)” value ([7]; content 0.150%) was 88.60%, the “Absorbance (540 nm)” value ([7]; content 0.200%) was 0.005 and the “Enzyme activity inhibition (%)” value ([7]; content 0.200%) was 92.03%. The “Absorbance (540 nm)” value ([7]; content 0.600%) was 0.002, the “Enzyme activity inhibition (%)” value ([7]; content 0.600%) was 92.22% and the “Absorbance (540 nm)” value ([7]; content 1.000%) was 0.000. The “Enzyme activity inhibition (%)” value ([7]; content 1.000%) was 92.34%, the “Absorbance (540 nm)” value ([7]; content 2.000%) was 0.000 and the “Enzyme activity inhibition (%)” value ([7]; content 2.000%) was 92.34%. The “activity for inactivating collagenase” value [7] was “good activity for inactivating collagenase”, the “inhibition effect at the concentration in excess of 0.6%” value [7] was “not significantly increased” and the “inhibition effect on collagenase activity in comparison with extracts of other medicinal herbs” value [7] was “superior inhibition effect on collagenase activity”.
